Measurements taken from US20240285670A1, “THERAPEUTIC TREATMENT OF TUMORS BY BLOCKING THE HEME SYNTHESIS-EXPORT AXIS” (Università degli Studi di Torino, priority 2021, published 2024).

Key:
[1] = system: Caco2 cells; assay: Activity of mitochondrial ETC complexes I-IV in Caco2 cells; type: cell-based, human; conditions: FLVCR1a-silenced vs scramble shRNA Caco2 cells
Description: (A, C, E) Activities of the mitochondrial electron transport chain complexes I-IV. FLVCR1a-silenced Caco2 (A), SKCO1 (C) or C80 cells (E) are compared to cells expressing a scramble shRNA. Results were expressed as nmol NAD^+/min/mg mitochondrial protein for complex I, nmol reduced cytochrome c/min/mg mitochondrial protein for complexes II-III, nmol oxidized cytochrome c/min/mg mitochondrial protein for complex IV. Data represent mean±SEM, n=3. For statistical analyses, an unpaired Student's t-test was used; *=p<0.05, **=p<0.01. (B, D, F) Mitochondrial ATP levels measured by a bioluminescent assay kit. FLVCR1a-silenced Caco2 (B), SKCO1 (D) or C80 cells (F) are compared to cells expressing a scramble shRNA. Results are expressed as nmol/mg mitochondrial proteins. Data represent mean±SEM, n=3. […] Results were expressed as nmol NAD^+/min/mg mitochondrial protein for complex I, nmol reduced cytochrome c/min/mg mitochondrial protein for complexes II-III, nmol oxidized cytochrome c/min/mg mitochondrial protein for complex IV. […] (H) Mitochondrial ATP levels measured by a bioluminescent assay kit in Caco2 cells overexpressing FLVCR1a (indicated as FLVCR1a+) compared to cells stably transduced with an empty vector. Results are expressed as nmol/mg mitochondrial proteins. […]
The activity of mitochondria respiration complexes was measured according to (Wibom et al., 2002).

[2] = system: BTECs; assay: BTECs counting (cell proliferation); type: cell-based, human; conditions: FLVCR1a-silenced vs scramble shRNA BTECs, 24, 48 and 72 hours
Description: (A) BTECs counting, as a readout of cell proliferation, at the indicated time points. […] Data represent mean±SEM, n=4. For statistical analyses, a two-way analysis of variance was used, followed by the Bonferroni correction for multiple group comparisons; ***p<0.001. (B) Quantification of BTECs migration rate in wound-healing assay. […] Data represent mean±SEM, n=32. For statistical analyses, a nonparametric unpaired Mann-Whitney test was used; ***p<0.001. (C) In vitro tubulogenesis assay on matrigel. […] The number of nodes counted within the neo-formed vascular networks is shown. Data represent mean±SEM; n=10. For statistical analyses, a nonparametric unpaired Mann-Whitney test was used; **p<0.01.
For cell counting, 1*10^4 BTECs were seeded in 12-well plates and counted at 24, 48 and 72 hours after plating, as a readout of cell proliferation. Three independent experiments were performed.

## FLVCR1a shRNA: shRNA specifically down-regulating FLVCR1a without targeting FLVCR1b; pLKO.1 lentiviral clone TRCN0000059599, antisense SEQ ID No.: 2 (antisense TTGCTAATGATGCTGTACTGG; sense CCAGTACAGCATCATTAGCAA)
[1]
  activity of mitochondrial respiratory chain complexes: increased activity of all the complexes involved in the mitochondrial respiratory chain
[2]
  cell proliferation (cell counting): reduced proliferation
